Experimental data reported in patent US9353090B2, “Heterocyclic carboxylic acids as activators of soluble guanylate cyclase” (Boehringer Ingelheim International GmbH, priority 2014, dated 2016).
In brackets after ≈: the same amount, converted by molar mass.

Experiments:
physchem = details: kinetic from dmso stock
[1] = molecular target: human soluble guanylate cyclase alpha 1 and beta 1 subunits (sGC) (Homo sapiens (Human), UniProt Q02108+Q02153); assay: sGC cellular activator assay (cGMP, HTRF), in the presence and absence of 50% human serum; format: cell-based; details: CHO cells stably expressing human sGC alpha 1/beta 1, preincubated with 40 microM ODQ; cGMP by HTRF; Table 2 does not state whether with or without 50% human serum
Sequence of human soluble guanylate cyclase alpha 1 and beta 1 subunits (sGC) (Q02108 whole entry partner): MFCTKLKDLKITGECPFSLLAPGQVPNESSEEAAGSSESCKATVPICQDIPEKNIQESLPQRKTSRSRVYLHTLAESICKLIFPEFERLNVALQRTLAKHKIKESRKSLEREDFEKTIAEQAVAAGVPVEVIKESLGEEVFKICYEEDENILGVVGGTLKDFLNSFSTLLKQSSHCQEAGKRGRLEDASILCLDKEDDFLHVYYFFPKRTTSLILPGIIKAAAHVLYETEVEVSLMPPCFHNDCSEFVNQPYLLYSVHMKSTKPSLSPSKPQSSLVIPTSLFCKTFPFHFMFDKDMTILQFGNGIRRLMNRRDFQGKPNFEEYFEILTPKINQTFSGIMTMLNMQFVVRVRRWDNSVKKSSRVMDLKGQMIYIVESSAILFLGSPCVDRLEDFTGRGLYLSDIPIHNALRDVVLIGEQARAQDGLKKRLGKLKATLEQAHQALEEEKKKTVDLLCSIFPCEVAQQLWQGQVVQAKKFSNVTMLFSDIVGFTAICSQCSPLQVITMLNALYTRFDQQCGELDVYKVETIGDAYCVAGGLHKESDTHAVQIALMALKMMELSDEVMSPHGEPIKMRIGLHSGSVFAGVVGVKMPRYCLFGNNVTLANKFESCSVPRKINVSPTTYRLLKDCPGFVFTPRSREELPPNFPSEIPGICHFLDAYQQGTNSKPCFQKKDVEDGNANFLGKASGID
Sequence of human soluble guanylate cyclase alpha 1 and beta 1 subunits (sGC) (Q02153 whole entry): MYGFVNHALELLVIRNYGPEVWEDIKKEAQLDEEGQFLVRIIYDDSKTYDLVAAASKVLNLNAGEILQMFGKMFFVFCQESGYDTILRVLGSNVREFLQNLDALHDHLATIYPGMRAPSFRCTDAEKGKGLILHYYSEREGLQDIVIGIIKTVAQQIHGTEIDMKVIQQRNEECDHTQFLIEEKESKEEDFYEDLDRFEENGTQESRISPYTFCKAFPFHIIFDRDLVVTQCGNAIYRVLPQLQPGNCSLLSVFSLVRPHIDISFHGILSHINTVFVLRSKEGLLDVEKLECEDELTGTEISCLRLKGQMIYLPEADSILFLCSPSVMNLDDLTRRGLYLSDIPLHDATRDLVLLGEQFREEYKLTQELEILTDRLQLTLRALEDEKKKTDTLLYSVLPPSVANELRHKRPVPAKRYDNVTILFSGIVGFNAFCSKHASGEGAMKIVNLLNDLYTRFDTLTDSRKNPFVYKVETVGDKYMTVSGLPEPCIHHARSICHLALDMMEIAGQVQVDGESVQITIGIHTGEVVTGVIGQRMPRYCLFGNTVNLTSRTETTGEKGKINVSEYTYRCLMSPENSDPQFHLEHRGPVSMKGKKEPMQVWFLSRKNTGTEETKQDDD
Procedure, shortened: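 Heme-oxidized conditions: ODQ (40 microM, 1 h) pretreatment of CHO cells stably expressing human α1/β1 sGC, in buffer containing 0.1% BSA and IBMX.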

[2] = Human liver microsome (HLM) metabolic stability assay; format: in vitro ADME; details: human liver microsomes
Procedure, shortened: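 Compound at 1 uM incubated with human liver microsomes at 37° C. for 60 min after NADPH addition. Aliquots quenched in cold acetonitrile at 0, 5, 15, 30 and 60 min and analysed by LC/MS/MS. t1/2 from ln(% remaining) vs time slope; CLint, CLh and % Qh derived from it (n=1).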

[3] = pH 2.2, aqueous buffer, Solubility (pH 2.2)
[4] = pH 4.5, aqueous buffer, Solubility (pH 4.5)
[5] = pH 6.8, aqueous buffer, Solubility (pH 6.8)

Compound | solubility at 24 h (physchem; [3]) | solubility at 24 h (physchem; [4]) | solubility at 24 h (physchem; [5]) | EC50 [1] | Metabolic stability (Qh %), % hepatic blood flow [2]
CO[C@H]1CN(c2cccc(-c3cccc(C)c3OCc3cc(F)c4c(c3)CCN(C3CCOCC3)CC4)n2)CC[C@H]1C(=O)O [Compound 273] | 120 µg/mL (≈ 198 µM) | 80.7 µg/mL (≈ 134 µM) | 64.3 µg/mL (≈ 107 µM) | 5 nM | <24%
CO[C@H]1CN(c2cccc(-c3cccc(C)c3OCc3cc(F)c4c(c3)CCN(C3COC3)CC4)n2)CC[C@H]1C(=O)O [Compound 274] | 114 µg/mL (≈ 198 µM) | 72 µg/mL (≈ 125 µM) | 65.5 µg/mL (≈ 114 µM) | 4 nM | <24%
CCO[C@H]1CN(c2nccc(-c3cccc(C)c3OCc3ccc4c(c3C)CCN(C3CCOCC3)CC4)n2)CC[C@H]1C(=O)O [Compound 275] | 117 µg/mL (≈ 190 µM) | 81.3 µg/mL (≈ 132 µM) | 84.5 µg/mL (≈ 137 µM) | 32 nM | 28%
CCO[C@@H]1CN(c2nccc(-c3cccc(C)c3OCc3ccc4c(c3C)CCN(C3CCOCC3)CC4)n2)CC[C@@H]1C(=O)O [Compound 276] | 126 µg/mL (≈ 206 µM) | 84.8 µg/mL (≈ 138 µM) | 90.6 µg/mL (≈ 147 µM) | 150 nM | <24%
CO[C@H]1CN(c2cccc(-c3cccc(C)c3OCc3ccc4c(c3F)CCN(C3CCOCC3)CC4)n2)CC[C@H]1C(=O)O [Compound 277] | 133 µg/mL (≈ 220 µM) | 97.1 µg/mL (≈ 161 µM) | 74.4 µg/mL (≈ 123 µM) | 4 nM | <24%
CO[C@H]1CN(c2cccc(-c3cccc(C)c3OCc3ccc4c(c3F)CCN(C3COC3)CC4)n2)CC[C@H]1C(=O)O [Compound 278] | 122 µg/mL (≈ 212 µM) | 85.1 µg/mL (≈ 148 µM) | 68 µg/mL (≈ 118 µM) | 6 nM | <24%
COCc1cc(COc2c(C)cccc2-c2cccc(N3C[C@@H]4C[C@]4(C(=O)O)[C@H]3COC)n2)cc2c1CN(C1CCOCC1)CC2 [Compound 279] | 128 µg/mL (≈ 203 µM) | 100 µg/mL (≈ 160 µM) | 82.8 µg/mL (≈ 132 µM) | 65 nM | <24%
COCc1cc(COc2c(C)cccc2-c2cccc(N3C[C@@H]4C[C@]4(C(=O)O)[C@H]3COC)n2)cc2c1CN(C1CCOC1)CC2 (some centres unmarked) [Compound 280] | 120 µg/mL (≈ 196 µM) | 91 µg/mL (≈ 148 µM) | 79.3 µg/mL (≈ 129 µM) | 140 nM | 30%
COCc1cc(COc2c(C)cccc2-c2cccc(N3C[C@@H]4C[C@]4(C(=O)O)[C@H]3COC)n2)cc2c1CN(C1COC1)CC2 [Compound 281] | 120 µg/mL (≈ 200 µM) | 87.4 µg/mL (≈ 146 µM) | 83.1 µg/mL (≈ 139 µM) | 267 nM | 25%
CO[C@H]1CN(c2cccc(-c3cccc(C)c3OCc3ccc4c(c3C)CCN(C3COC3)CC4)n2)CC[C@H]1C(=O)O [Compound 282] | 137 µg/mL (≈ 240 µM) | 99.6 µg/mL (≈ 174 µM) | 80.5 µg/mL (≈ 141 µM) | 14 nM | 58%
CO[C@@H]1CN(c2cccc(-c3cccc(C)c3OCc3ccc4c(c3C)CCN(C3CCOC3)CC4)n2)CC[C@@H]1C(=O)O (some centres unmarked) [Compound 283] | 124 µg/mL (≈ 212 µM) | 89.4 µg/mL (≈ 153 µM) | 68.4 µg/mL (≈ 117 µM) | 4 nM | <24%
COCc1cc(COc2c(C)cccc2-c2cccc(N3CC[C@H](C(=O)O)[C@H](OC)C3)n2)cc2c1CN(C1CCOC1)CC2 (some centres unmarked) [Compound 284] | 129 µg/mL (≈ 215 µM) | 103 µg/mL (≈ 171 µM) | 83.5 µg/mL (≈ 139 µM) | 231 nM | <24%
COCc1cc(COc2c(C)cccc2-c2cccc(N3CC[C@H](C(=O)O)[C@H](OC)C3)n2)cc2c1CN(C1COC1)CC2 [Compound 285] | 146 µg/mL (≈ 248 µM) | 111 µg/mL (≈ 188 µM) | 97.6 µg/mL (≈ 166 µM) | 359 nM | <24%
COCc1cc(COc2c(C)cccc2-c2cccc(N3CC[C@H](C(=O)O)[C@H](OC)C3)n2)cc2c1CN(C1CCOCC1)CC2 [Compound 286] | 149 µg/mL (≈ 242 µM) | 119 µg/mL (≈ 193 µM) | 88.5 µg/mL (≈ 144 µM) | 160 nM | <24%
CO[C@H]1CN(c2nc(-c3cccc(C)c3OCc3ccc4c(c3C)CCN(C3COC3)CC4)cs2)CC[C@H]1C(=O)O [Compound 287] | 120 µg/mL (≈ 207 µM) | 72.7 µg/mL (≈ 126 µM) | 71.7 µg/mL (≈ 124 µM) | 13 nM | <24%
CO[C@H]1CN(c2nc(-c3cccc(C)c3OCc3ccc4c(c3C)CCN(C3CCOCC3)CC4)cs2)CC[C@H]1C(=O)O [Compound 288] | 117 µg/mL (≈ 193 µM) | 75.5 µg/mL (≈ 125 µM) | 71.8 µg/mL (≈ 119 µM) | 18 nM | <24%
CO[C@H]1CN(c2cccc(-c3cccc(C)c3OCc3ccc4c(c3C)CCN(C3COC3)CC4)n2)CC[C@@H]1C(=O)O [Compound 289] | 123 µg/mL (≈ 215 µM) | 82.4 µg/mL (≈ 144 µM) | 69.9 µg/mL (≈ 122 µM) | 235 nM | <24%
CO[C@@H]1CN(c2cccc(-c3cccc(C)c3OCc3ccc4c(c3C)CCN(C3COC3)CC4)n2)CC[C@H]1C(=O)O [Compound 290] | 119 µg/mL (≈ 208 µM) | 80 µg/mL (≈ 140 µM) | 66.5 µg/mL (≈ 116 µM) | 228 nM | <24%
CO[C@@H]1CN(c2cccc(-c3cccc(C)c3OCc3cc(C)c4c(c3)CCN(C3COC3)CC4)n2)CC[C@@H]1C(=O)O [Compound 291] | 128 µg/mL (≈ 224 µM) | 84.7 µg/mL (≈ 148 µM) | 62.3 µg/mL (≈ 109 µM) | 2 nM | <24%
Cc1c(COc2ccccc2-c2cccc(N3CC[C@@]4(C(=O)O)C[C@H]4C3)n2)ccc2c1CCN(C1CCC1)C2 [Compound 292] | 113 µg/mL (≈ 216 µM) | 43.5 µg/mL (≈ 83.1 µM) | 6.2 µg/mL (≈ 11.8 µM) | 3 nM | 47%
CO[C@@H]1CN(c2cccc(-c3cccc(C)c3OCc3cc(C)c4c(c3)CCN(C3CCOCC3)CC4)n2)CC[C@@H]1C(=O)O [Compound 293] | 116 µg/mL (≈ 193 µM) | 82.3 µg/mL (≈ 137 µM) | 63.1 µg/mL (≈ 105 µM) | 1 nM | 25%
CO[C@H]1CN(c2cccc(-c3cccc(C)c3OCc3ccc4c(c3C)CCN(C3CCOCC3)CC4)n2)CC[C@@H]1C(=O)O [Compound 296] | 132 µg/mL (≈ 219 µM) | 77.2 µg/mL (≈ 129 µM) | 68.8 µg/mL (≈ 115 µM) | 363 nM | <24%
CO[C@@H]1CN(c2cccc(-c3cccc(C)c3OCc3ccc4c(c3C)CCN(C3CCOCC3)CC4)n2)CC[C@H]1C(=O)O [Compound 297] | 134 µg/mL (≈ 224 µM) | 93.7 µg/mL (≈ 156 µM) | 77.3 µg/mL (≈ 129 µM) | 150 nM | <24%
CO[C@H]1CN(c2cccc(-c3cccc(C)c3OCc3cc(C)c4c(c3)CCN(C3CCOCC3)C4)n2)CC[C@@H]1C(=O)O [Compound 298] | 131 µg/mL (≈ 224 µM) | 98.1 µg/mL (≈ 167 µM) | 80.1 µg/mL (≈ 137 µM) | 578 nM | 34%
CO[C@@H]1CN(c2cccc(-c3cccc(C)c3OCc3cc(C)c4c(c3)CCN(C3CCOCC3)C4)n2)CC[C@H]1C(=O)O [Compound 299] | 134 µg/mL (≈ 229 µM) | 90.8 µg/mL (≈ 155 µM) | 70.8 µg/mL (≈ 121 µM) | 152 nM | 31%
